According to ChEMBL document CHEMBL1201862, “PubChem BioAssay data set” (2004):
Activity calls are given as the source filed them.

Legend:
[1] = target: T1, Low molecular weight phosphotyrosine protein phosphatase (Homo sapiens, UniProt P24666); experiment: inhibition of LMPTP-A enzymatic activity – biochemical, OMFP substrate, fluorescence intensity, set 2, dose response (AID 743307); format: functional
T1 sequence (P24666 whole entry): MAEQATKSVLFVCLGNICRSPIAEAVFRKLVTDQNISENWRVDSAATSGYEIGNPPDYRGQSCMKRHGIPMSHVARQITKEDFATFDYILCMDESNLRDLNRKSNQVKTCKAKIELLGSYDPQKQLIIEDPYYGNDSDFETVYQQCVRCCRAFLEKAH

[2] = target: T1, Low molecular weight phosphotyrosine protein phosphatase; experiment: inhibition of human LMPTP enzyme activity – biochemical, absorbance, pNPP substrate, LMPTP-A isoform, set 2, orthogonal assay, dose response (AID 743308); format: functional
Leucine aminopeptidase = target: T2, Leucine aminopeptidase (Plasmodium falciparum 3D7, UniProt Q8IL11); experiment: P. falciparum M17LAP inhibitors, primary screen, biochemical, fluorogenic H-Leu-NHMec substrate, 1536-well (AID 1619); format: functional
T2 sequence (Q8IL11 whole entry): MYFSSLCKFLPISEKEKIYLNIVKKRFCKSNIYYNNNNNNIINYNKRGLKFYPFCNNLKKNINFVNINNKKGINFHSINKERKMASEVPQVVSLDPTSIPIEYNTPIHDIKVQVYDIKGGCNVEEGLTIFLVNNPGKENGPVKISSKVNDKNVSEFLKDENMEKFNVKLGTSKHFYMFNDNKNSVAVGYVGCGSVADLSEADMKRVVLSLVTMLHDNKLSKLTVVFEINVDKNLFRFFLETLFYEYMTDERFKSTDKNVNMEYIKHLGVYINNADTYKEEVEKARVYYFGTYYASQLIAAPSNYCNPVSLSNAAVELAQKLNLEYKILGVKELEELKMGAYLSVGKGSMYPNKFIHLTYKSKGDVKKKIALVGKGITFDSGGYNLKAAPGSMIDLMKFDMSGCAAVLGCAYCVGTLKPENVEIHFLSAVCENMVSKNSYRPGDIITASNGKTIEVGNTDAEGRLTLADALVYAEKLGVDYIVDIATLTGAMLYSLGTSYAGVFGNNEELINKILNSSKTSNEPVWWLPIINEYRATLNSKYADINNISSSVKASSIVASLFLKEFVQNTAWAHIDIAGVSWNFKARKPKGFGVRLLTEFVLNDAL

[3] = target: Ubiquitin carboxyl-terminal hydrolase BAP1 (Homo sapiens, UniProt Q92560); experiment: inhibition of BAP1 ubiquitin hydrolase activity – biochemical, dose response (AID 714); format: functional
Ubiquitin carboxyl-terminal hydrolase BAP1, sequence (Q92560 whole entry): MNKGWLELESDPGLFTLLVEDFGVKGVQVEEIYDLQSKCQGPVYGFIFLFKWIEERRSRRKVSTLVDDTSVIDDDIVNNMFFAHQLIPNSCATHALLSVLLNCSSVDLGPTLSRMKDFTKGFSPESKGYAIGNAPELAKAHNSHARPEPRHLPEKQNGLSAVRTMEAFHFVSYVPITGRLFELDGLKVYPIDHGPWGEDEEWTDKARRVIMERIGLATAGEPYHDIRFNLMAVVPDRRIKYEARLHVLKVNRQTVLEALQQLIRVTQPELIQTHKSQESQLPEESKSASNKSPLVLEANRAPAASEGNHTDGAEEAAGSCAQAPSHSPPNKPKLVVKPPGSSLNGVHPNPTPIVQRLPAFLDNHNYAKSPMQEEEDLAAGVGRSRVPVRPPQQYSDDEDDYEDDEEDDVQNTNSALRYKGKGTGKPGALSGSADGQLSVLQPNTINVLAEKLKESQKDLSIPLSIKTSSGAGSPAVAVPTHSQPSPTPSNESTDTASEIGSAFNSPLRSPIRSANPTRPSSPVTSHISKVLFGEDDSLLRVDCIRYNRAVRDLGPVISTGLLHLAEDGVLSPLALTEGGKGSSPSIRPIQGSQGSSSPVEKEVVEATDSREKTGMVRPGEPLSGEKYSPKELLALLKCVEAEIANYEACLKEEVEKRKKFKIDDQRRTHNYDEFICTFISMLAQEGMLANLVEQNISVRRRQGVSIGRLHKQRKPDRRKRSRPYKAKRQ

Estrogen receptor = Estrogen receptor (Homo sapiens, UniProt P03372);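 also: potency for inhibiting coactivator peptide recruitment to the receptor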
Estrogen receptor, sequence (P03372 whole entry): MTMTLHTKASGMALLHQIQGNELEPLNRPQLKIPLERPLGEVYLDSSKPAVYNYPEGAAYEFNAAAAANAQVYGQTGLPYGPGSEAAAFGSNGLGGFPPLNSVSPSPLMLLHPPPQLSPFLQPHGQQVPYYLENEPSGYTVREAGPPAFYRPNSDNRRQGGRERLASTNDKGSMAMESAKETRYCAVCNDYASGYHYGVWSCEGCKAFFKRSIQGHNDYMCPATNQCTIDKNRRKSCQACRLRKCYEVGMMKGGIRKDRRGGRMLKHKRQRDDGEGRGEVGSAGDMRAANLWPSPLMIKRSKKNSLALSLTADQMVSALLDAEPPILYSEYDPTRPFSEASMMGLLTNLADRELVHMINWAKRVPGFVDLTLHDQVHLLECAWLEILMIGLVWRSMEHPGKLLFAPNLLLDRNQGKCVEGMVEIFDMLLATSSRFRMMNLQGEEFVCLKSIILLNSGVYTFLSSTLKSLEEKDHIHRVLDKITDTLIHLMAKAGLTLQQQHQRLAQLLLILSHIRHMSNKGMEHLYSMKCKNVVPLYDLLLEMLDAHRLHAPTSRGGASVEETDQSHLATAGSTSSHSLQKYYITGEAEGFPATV

Estrogen receptor beta = Estrogen receptor beta (Homo sapiens, UniProt Q92731); experiment: blockers of SRC-3 recruitment to ERβ – biochemical, ELISA, streptavidin-HRP readout, orthogonal assay, confirmation (AID 1060)
Estrogen receptor beta, sequence (Q92731 whole entry, the tested form may be a part): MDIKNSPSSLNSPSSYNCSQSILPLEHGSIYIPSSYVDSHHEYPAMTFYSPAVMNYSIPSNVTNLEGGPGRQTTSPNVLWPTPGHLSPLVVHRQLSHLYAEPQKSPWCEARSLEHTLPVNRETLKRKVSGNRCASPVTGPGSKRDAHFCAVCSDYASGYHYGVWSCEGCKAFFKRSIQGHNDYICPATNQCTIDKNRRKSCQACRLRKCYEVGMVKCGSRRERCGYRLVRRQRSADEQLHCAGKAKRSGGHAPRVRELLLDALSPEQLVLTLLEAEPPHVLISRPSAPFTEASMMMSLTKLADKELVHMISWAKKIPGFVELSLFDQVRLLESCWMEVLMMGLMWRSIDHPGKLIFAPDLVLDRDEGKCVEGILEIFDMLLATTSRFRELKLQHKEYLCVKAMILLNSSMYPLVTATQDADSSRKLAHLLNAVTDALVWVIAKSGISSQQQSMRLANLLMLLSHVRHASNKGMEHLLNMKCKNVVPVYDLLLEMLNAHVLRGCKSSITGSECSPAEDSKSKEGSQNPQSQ

[4] = target: T3, Carboxy-terminal domain RNA polymerase II polypeptide A small phosphatase 1 (Homo sapiens, UniProt Q9GZU7); experiment: CTDSP1 inhibitors, concentration-response, biochemical, absorbance readout, ultra-high-throughput screen actives (AID 540297); format: functional
T3 sequence (Q9GZU7 whole entry): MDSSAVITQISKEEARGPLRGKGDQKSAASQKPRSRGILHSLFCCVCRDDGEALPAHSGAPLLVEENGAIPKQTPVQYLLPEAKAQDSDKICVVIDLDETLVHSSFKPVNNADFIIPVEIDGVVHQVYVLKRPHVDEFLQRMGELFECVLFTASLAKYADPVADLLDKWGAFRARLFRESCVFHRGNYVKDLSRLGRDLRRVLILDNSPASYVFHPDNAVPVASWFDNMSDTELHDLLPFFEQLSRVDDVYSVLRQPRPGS

[5] = target: Serine/threonine-protein phosphatase PP1-alpha catalytic subunit (Homo sapiens, UniProt P62136); experiment: inhibition of protein phosphatase 1 activity – biochemical, fluorescence, dose response (AID 2394)
Serine/threonine-protein phosphatase PP1-alpha catalytic subunit, sequence (P62136 whole entry): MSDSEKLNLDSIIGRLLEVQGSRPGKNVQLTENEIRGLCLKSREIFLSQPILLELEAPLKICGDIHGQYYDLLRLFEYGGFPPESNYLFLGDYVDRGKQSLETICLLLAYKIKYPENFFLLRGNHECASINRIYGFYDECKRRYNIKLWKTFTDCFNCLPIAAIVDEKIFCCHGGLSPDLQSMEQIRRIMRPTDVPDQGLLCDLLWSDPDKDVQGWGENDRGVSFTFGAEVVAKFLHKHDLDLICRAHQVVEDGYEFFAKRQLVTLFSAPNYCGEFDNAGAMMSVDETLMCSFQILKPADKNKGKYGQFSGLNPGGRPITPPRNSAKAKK

[6] = viability of PTEN-deleted HCT116 cells – cell-based, HCT116 PTEN knockout, dose response (AID 1047); format: functional;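 also: HCT116 colon tumor cells with PTEN knocked out; cells exposed to compound for 60 hours before readout; potency for loss of cell viability measured by luminescence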
[7] = target: Serine/threonine-protein phosphatase (Homo sapiens, UniProt Q9BPW0); experiment: inhibition of protein phosphatase 5 activity – biochemical, fluorescence, dose response (AID 2395)
Serine/threonine-protein phosphatase, sequence (Q9BPW0 whole entry): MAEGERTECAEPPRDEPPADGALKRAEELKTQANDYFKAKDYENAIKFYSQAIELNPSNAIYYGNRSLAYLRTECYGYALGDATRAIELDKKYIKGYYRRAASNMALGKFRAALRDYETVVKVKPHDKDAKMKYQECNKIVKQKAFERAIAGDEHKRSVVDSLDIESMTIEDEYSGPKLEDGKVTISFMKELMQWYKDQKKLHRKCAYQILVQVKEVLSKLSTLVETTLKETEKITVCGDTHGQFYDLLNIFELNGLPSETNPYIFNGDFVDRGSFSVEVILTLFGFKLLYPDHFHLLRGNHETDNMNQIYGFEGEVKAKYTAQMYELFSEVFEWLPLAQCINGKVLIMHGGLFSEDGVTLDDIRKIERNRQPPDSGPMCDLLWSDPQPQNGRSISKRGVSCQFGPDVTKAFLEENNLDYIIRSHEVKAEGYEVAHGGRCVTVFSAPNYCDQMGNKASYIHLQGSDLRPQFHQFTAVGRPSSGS

[8] = viability of HCT116 lacking mutant beta-catenin – cell-based, human colon tumor, dose response (AID 1045); format: functional;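 also: HCT116 colon tumor cells with beta catenin knocked out; cells exposed to compound for 60 hours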
[9] = target: T4, Sphingosine 1-phosphate receptor 2 (Homo sapiens, UniProt O95136); experiment: Dose Response Cell Based Assay for Agonists of the S1P2 Receptor. [Related pubchem assays: 729, 736, 843 ]; format: functional
T4 sequence (O95136 whole entry): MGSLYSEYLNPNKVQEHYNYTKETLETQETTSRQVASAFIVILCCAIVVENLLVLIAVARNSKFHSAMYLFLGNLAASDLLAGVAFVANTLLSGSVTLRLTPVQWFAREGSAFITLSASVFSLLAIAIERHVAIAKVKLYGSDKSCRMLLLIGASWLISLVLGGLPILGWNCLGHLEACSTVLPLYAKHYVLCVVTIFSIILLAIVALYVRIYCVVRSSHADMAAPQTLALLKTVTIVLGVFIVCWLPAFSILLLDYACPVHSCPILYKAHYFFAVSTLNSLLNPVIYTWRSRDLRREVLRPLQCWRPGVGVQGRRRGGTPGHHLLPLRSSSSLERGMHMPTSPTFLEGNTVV

Protein RecA = target: T5, Protein RecA (Mycobacterium tuberculosis, UniProt P9WHJ3); experiment: Fluorescence Cell-Free Homogeneous Dose Retest to Identify Inhibitors of RecA-Intein Splicing Activity. [Related pubchem assays (depositor defined):AID2097, AID2223, AID489010, AID492950]; format: functional
T5 sequence (P9WHJ3 whole entry): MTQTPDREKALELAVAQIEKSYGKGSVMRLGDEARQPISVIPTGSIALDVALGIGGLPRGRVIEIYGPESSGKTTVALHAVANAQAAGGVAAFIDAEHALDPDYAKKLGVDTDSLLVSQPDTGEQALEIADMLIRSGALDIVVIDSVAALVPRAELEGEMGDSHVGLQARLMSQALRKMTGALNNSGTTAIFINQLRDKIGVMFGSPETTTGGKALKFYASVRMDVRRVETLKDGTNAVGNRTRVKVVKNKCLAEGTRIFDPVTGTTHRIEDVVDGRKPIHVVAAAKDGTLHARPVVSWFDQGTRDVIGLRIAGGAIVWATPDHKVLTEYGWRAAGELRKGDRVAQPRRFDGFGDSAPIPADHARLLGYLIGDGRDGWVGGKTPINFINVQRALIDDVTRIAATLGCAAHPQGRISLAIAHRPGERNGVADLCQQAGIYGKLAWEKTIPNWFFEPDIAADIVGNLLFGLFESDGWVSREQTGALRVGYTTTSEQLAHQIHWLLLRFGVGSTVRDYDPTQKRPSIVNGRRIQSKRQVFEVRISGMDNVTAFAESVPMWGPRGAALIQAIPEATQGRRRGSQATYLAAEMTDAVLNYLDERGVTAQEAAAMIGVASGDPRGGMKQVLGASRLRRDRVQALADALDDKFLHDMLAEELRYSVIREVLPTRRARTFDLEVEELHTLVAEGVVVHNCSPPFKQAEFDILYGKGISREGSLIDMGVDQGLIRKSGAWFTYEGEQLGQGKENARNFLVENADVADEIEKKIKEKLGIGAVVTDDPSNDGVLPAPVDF

[10] = luciferase reporter signal suppression in cells – H4 neuroglioma cells, luminescence, dose response (AID 1990); format: functional, cell-based
[11] = Luminescence Cell-Based Dose Response HTS to Identify Inhibitors of 5'UTR Stem-Loop Driven Prion Protein mRNA Translation in H4 Neuroglioblastoma Cells. [Related pubchem assays: 1827 (Project Summary), 1813 (Primary HTS)]; format: functional
[12] = alpha-synuclein stem-loop luciferase translation blockers – H4 neuroglioma cells, luminescence, confirmation (AID 1988); format: functional, cell-based
[13] = HIV-1 Vif–A3G interaction blockers – biochemical, TR-FRET, GST-Vif 1-94, biotin-A3G peptide, dose response retest, primary screen (AID 1117319); format: functional;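 also: TR-FRET signal of purified GST-Vif binding a biotinylated A3G peptide; inhibitors lower the FRET signal by blocking Vif and A3G binding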
[14] = viability loss in Vero cells – cytotoxicity control for Vif-APOBEC3G degradation inhibitor project, dose response (AID 1117358); format: functional; settings: Vero
HEK293 [15] = experiment: cells; settings: Homo sapiens
HEK293 [16] = experiment: cells; settings: Homo sapiens; remark: listed apart in the source
[17] = target: Voltage-gated inwardly rectifying potassium channel KCNH2 (Homo sapiens, UniProt Q12809); experiment: concentration-dependent hERG rescue from blockers – cell-based, thallium flux, dose response (AID 2121); format: ADME
Voltage-gated inwardly rectifying potassium channel KCNH2, sequence (Q12809 whole entry): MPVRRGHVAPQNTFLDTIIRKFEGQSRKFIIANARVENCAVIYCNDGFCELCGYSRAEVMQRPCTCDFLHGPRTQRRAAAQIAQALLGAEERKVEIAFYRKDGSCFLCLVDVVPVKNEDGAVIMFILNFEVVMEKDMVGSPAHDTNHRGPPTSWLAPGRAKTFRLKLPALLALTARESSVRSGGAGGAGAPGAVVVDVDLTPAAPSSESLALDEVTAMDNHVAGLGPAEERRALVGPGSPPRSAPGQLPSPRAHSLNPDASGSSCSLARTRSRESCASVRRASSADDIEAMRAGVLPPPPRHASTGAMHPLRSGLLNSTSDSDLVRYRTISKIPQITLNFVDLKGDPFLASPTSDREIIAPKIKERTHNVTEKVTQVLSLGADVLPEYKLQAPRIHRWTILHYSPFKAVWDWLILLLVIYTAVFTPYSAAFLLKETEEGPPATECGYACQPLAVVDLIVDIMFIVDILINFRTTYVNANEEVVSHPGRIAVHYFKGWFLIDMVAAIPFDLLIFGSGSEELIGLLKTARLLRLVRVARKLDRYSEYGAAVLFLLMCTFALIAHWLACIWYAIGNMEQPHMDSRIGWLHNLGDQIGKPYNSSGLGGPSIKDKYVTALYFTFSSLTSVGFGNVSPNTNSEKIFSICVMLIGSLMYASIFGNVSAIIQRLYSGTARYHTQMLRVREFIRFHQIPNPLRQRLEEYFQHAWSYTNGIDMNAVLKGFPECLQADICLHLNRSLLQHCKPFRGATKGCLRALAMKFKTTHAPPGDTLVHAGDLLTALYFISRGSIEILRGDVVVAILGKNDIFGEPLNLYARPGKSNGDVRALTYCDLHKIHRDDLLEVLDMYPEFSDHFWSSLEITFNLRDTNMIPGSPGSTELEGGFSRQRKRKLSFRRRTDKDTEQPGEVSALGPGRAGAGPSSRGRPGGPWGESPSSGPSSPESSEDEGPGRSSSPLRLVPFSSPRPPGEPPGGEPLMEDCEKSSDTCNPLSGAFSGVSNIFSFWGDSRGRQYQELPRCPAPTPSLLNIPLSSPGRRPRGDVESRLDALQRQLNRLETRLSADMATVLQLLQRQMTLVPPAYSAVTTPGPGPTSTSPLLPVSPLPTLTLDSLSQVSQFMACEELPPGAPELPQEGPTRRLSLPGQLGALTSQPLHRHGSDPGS

Hexokinase = target: T6, Hexokinase (Trypanosoma brucei, UniProt Q38C41); experiment: Confirmation assay for inhibitors of Trypanosoma brucei hexokinase 1-Analogue-first series. [Related pubchem assays (depositor defined):AID1430, AID1632, AID2516, AID2560, AID2579, AID2600, AID449725, AID492951]; format: functional
T6 sequence (Q38C41 whole entry): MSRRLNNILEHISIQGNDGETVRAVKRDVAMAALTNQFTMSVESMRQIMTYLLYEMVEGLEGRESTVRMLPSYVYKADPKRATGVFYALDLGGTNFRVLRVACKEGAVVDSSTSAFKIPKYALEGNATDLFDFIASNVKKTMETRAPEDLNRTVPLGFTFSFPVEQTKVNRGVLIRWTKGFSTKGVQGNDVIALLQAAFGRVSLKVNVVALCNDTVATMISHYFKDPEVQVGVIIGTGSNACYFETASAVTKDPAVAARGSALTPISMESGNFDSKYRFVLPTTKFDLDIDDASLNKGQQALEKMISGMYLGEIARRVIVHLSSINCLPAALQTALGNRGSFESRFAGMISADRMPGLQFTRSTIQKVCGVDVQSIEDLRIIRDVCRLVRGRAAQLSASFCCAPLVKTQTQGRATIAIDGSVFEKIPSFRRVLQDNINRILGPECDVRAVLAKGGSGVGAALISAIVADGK

[18] = target: Mitogen-activated protein kinase 10 (Homo sapiens, UniProt P53779); experiment: Dose response biochemical screening assay for inhibitors of c-Jun N-Terminal Kinase 3 (JNK3). [Related pubchem assays: 746 ]
Mitogen-activated protein kinase 10, sequence (P53779 whole entry): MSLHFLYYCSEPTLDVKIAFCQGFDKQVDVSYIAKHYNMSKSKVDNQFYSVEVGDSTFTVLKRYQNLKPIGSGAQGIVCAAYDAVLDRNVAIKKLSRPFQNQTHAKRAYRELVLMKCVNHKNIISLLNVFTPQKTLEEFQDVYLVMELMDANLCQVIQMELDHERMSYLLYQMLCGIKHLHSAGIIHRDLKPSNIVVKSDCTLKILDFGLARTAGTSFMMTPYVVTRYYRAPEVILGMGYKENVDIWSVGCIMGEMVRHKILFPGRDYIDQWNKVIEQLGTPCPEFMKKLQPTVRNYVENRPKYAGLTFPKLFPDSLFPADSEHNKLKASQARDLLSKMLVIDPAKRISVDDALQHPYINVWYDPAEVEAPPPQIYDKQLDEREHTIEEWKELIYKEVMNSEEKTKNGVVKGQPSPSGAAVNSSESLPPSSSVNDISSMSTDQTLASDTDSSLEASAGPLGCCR

[19] = target: T4, Sphingosine 1-phosphate receptor 2; experiment: Dose Response Cell Based Assay for Antagonists of the S1P2 Receptor. [Related pubchem assays: 856, 736 ]; format: functional
INS1 = experiment: INS-1E survival protection against cytokine death – cell-based, luminescence, retest, dose response (AID 449756); format: functional; settings: Rattus norvegicus;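 also: cell death triggered by IL-1 beta plus TNF-alpha plus IFN-gamma mixture; protective hits raise ATP signal compared with cytokine alone wells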
[20] = target: T7, COUP transcription factor 2 (Homo sapiens, UniProt P24468); experiment: Luminescence-based cell-based high throughput dose response assay to identify inhibitors of COUP-TFII (NR2F2).; format: functional;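 also: HEK293 cells transiently cotransfected with COUP-TFII expression vector and reporter; luciferase reporter luminescence driven by COUP-TFII from the pX2-168 reporter plasmid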
T7 sequence (P24468 whole entry): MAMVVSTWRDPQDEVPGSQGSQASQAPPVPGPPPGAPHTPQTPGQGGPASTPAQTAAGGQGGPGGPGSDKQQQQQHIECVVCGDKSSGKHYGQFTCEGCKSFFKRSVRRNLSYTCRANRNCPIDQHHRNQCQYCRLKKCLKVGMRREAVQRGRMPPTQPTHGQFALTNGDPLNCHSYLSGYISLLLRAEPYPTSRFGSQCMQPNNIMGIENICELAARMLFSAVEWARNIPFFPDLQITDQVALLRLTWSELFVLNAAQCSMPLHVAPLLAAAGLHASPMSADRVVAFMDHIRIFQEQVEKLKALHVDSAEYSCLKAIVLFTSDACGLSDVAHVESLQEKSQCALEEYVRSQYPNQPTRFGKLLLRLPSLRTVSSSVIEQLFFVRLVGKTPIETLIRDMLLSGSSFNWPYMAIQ

[21] = Luminescent dose response cell-based high throughput screening assay for inhibitors of the Janus kinase 2 mutant JAK2V617F. [Related pubchem assays: 1446 (Primary screen.), 1521 (Confirmation assay.), 1486 (Counter screen.)]; format: functional
[22] = Trypanosoma cruzi growth suppression in host cells – NIH3T3 host cells, beta-gal luminescence, confirmation (AID 2044); format: functional, cell-based;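 also: intracellular parasites grown in NIH/3T3 mouse fibroblasts as host cells; luminescent beta-galactosidase reporter signal from transgenic T. cruzi replicating inside host cells; inhibitors lower the luminescence signal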
[23] = NIH3T3 cell viability loss – ATP luminescence, mouse fibroblasts, counter-screen, dose response (AID 2010); format: functional, cell-based;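 also: cells exposed to compound for about 90 hours before reading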
[24] = THP-1 cell cytotoxicity, dose response, cytotoxicity control for non-replicating M. tuberculosis project (AID 489025); format: functional
[25] = Vero E6 cell cytotoxicity, dose response, cytotoxicity control for non-replicating M. tuberculosis project, secondary assay (AID 492998); format: functional, VeroE6; settings: Vero C1008
cells = format: functional
HEK293 [26] = experiment: EBV LMP1 TES2 canonical NF-kB signalling blockers – cell-based, HEK293, luciferase, cherry-pick, dose response (AID 588343); format: functional; settings: Homo sapiens

Compound: c1ccc2c(NCCCN3CCCCC3)cc(-c3ccncc3)nc2c1
- IC50 [1]: 2.48 µM (active)
- IC50 [2]: 6.49 µM (active)

Compound: CCOC(=O)c1ccc(NC(=O)CSc2nc(C)cc(=O)[nH]2)cc1
- IC50 (Leucine aminopeptidase): 11.8 µM (active)
- IC50 [3]: 23.3 µM (active)
- IC50 (Estrogen receptor): 3.06 µM (active)
- IC50 (Estrogen receptor beta): < 0.023 µM (not active)
- IC50 [4]: 2.67 µM (active)

Compound: CC(C)CNC(=O)c1c(N)n(Cc2ccc3c(c2)OCO3)c2nc3ccccc3nc12
- IC50 [5]: > 67 µM (not active)
- EC50 [6]: 11.9 µM (active)
- IC50 [7]: 17.9 µM (not active)
- EC50 [8]: 16.3 µM (active)
- EC50 [9]: 2.61 µM (active)
- EC50 (Protein RecA): > 380 µM (inconclusive)

Compound: CC(C)c1nc2sc3c(NCc4ccco4)ncnc3c2c2c1COC(C)(C)C2
- EC50 [10]: 19.2 µM (active)
- EC50 [11]: > 120 µM (not active)
- EC50 [12]: > 120 µM (not active)
- IC50 [13]: > 50 µM (active)
- CC50 [14]: > 40 µM (active)
- EC50 (HEK293 [15]): > 59.6 µM (inactive)
- EC50 (HEK293 [16]): > 59.6 µM (inactive)

Compound: COc1ccc(C(=O)Nc2ccccc2C(=O)O)cc1Cl
- EC50 [17]: 13 µM (active)
- IC50 (Hexokinase): > 25 µM (inactive)

Compound: COc1ccc(C2C(C#N)=C(N)SC(N)=C2C#N)cc1OC
- IC50 [18]: > 31 µM (not active)

Compound: CCOC(=O)N1CCN(C(=O)CSCC(=O)Nc2nc(-c3ccc(-c4ccccc4)cc3)cs2)CC1
- IC50 [19]: 2.47 µM (active)
- AC50 (INS1): 4.63 µM (active)
- IC50 [20]: 5.66 µM (active)

Compound: COc1ccccc1-c1nnc(Sc2nc([N+](=O)[O-])nn2C)o1
- IC50 [21]: 1.52 µM (active)
- EC50 [22]: 0.556 µM (active)
- EC50 [23]: 17.5 µM (active)
- CC50 [24]: 13.6 µM (active)
- CC50 [25]: 17.5 µM (active)
- IC50 (cells): 1.95 µM (active)
- AC50 (HEK293 [26]): 4.37 µM (active)
